What was measured:
[1] = target: T1, GST-CypA and NS5A or NS5B (Homo sapiens, UniProt P62937); assay: GST pull-down assay of CypA with NS5A or NS5B; assay type: binding; details: 2 μM and 4 μM; FIG. 12b
T1 construct: made in house; host or cells: E. coli (pGEX-KG)
Experimental: Example 15: Expression and Purification of GST Proteins
A plasmid pGEX-KG was used for the expression of recombinant proteins in E. coli. GST-CypA, a mutant GST-CypAR55A (a mutation at PPIase site), GST-CypB, GST-NS5A, and the full length GST-NS5B were prepared by a standard replication process. The bacteria expression vector, pGEX-KG, was transformed into TOPIOF cells (Promega, Madison, Wis., USA). The bacteria culture was grown in LB medium containing 100 μg/mL of ampicillin until the optical density at 600 nm reached 0.8 to 1.0. Then, 0.1 mM isopropyl β-D-1-thiogalactopyranoside (IPTG) was added thereto to induce the expression of a GST fusion protein and incubated further at 30° C. for 4 hours. The resulting bacteria was pelleted by centrifugation at 340 g for 20 minutes at 4° C., resuspended in 10 mL PBST (PBS containing 1% Triton X-100), added with 1 mM PMSF, and subjected to sonication at 25% amplitude with a brake at intervals of 10 seconds for 30 minutes. Upon sonication, the bacteria extract was centrifuged at 340 g for 5 minutes at 4° C. and the supernatant containing GST protein was stored at −80° C. The GST fusion protein was cleaved in thrombin-cleaving buffer containing 50 units of thrombin overnight so that the recombinant proteins could be released from the GST-tagged glutathione resin. […]

CypB = target: T2, CypB (Homo sapiens, UniProt P23284); assay: SPR binding of WJCPA-126 to CypB; details: SPR-based kinetic analysis
T2 construct: GST (N); made in house; host or cells: E. coli (pGEX-KG)

HCV-Con1b replicon = assay: HCV mouse model (NOD/SCID mice transplanted with Huh7 HCV-Con1b replicon cells); details: 50 mg/kg intraperitoneally daily, two weeks
Experimental: Five to six-week old immunodeficient NOD/SCID mice (Charles River Laboratories, USA) were used. The use of experimental animals and experimental protocol (KHUASP (SE)-11-045) was approved by the Institutional Animal Care and Use Committee of Kyung Hee University (Seoul, Korea). The control Huh7 cells or the Huh7 cells including the HCV-Con1b replicon were injected into mice intrasplenically (1×10^6 cells/200 μL of PBS). Cell transplantation and surgical procedures were performed under anesthesia along with a prophylactic antibiotic. […] Each treatment group consisted of 5 mice. Upon completion of the treatment, the mice were sacrificed and liver tissues were collected from them for analysis.
Murine liver tissues were dissected and then cryoprotected in 30% sucrose for the preparation of paraffin-embedded samples. Paraffin samples for Hematoxylin and Eosin (H&E) staining were prepared. After removing paraffin, rehydrated samples were incubated with monoclonal antibodies to human hepatocytes (Hep par 1) and HCV NS5A (Santa Cruz, Calif., USA), which were diluted at a ratio of 1:50, at 4° C. overnight. […] The nuclei were stained with DAPI for 5 minutes and analyzed using a confocal microscope.
HCV RNA was extracted from liver tissue by Trizol method. Mouse liver tissues were mechanically destroyed and lysed in Trizol (Invitrogen, Carlsbad, Calif., USA). The quantitative analysis of HCV RNA was performed using real-time transcription PCR.

murine splenocytes = assay: MTT cytotoxicity in murine splenocytes; assay type: cell-based, mouse; details: up to 10 μM; FIG. 8a
Experimental: Example 3: Isolation of Splenocytes from Mice and Cell Culture
Seven to eight week-old female Balb/c mice were purchased from Orient Bio, Inc. (Sungnam, Korea). Experimental animals were allowed to maintain at a non-pathogenic environment and adapted before the experiment. Experimental mice were sacrificed by dislocation of spine, and the spleens collected therefrom were removed into petri dishes filled with RPMI containing 10% FBS, 100 units/mL of penicillin, and 100 μg/mL of streptomycin. The spleens were dispersed through a nylon mesh to prepare a single cell suspension, and RBC was depleted by using RBC lysis buffer (Sigma, St. Louis, Mo.). Splenocytes were washed and cultured in RPMI complete medium.
Example 9: Analysis of Cytotoxicity
Cytotoxicity was analyzed in a 96-well plate using 5 mg/mL of MTT (3-(4,5-dimethylthiasol-2-yl)-2,5-diphenyltetrazolium bromide). The optical density of cells was measured at 550 nm using a microplate reader (Bio-Rad, Richmond, Calif., USA). Cell viability rate was expressed in percentage of the absorbance of treated cells relative to the absorbance of untreated cells.

CypA = target: T3, CypA (Homo sapiens, UniProt P62937); assay: SPR binding of WJCPA-126 or CsA to CypA
T3 construct: GST (N, cleaved yes); made in house; host or cells: E. coli (pGEX-KG)
Experimental: Example 4: Molecular Docking Analysis by Surface Plasmon Resonance (SPR)
CypA protein was fixed on the sensor chip surface via free amine coupling by injecting a mixture of 0.1 M 1-ethyl-3-(3-dimethylaminopropyl) carboimidehydrochloride and 0.05 M N-hydroxysuccinimide thereon, and the extra activated carboxylic acid was inhibited using 1M ethanolamine (pH 8.5). The second reference cell was treated similarly while excluding the target protein. All working peptide dilutions were prepared in running buffer (PBS containing 0.2% DMSO) and injected at a rate of 30 μL/min for 3 minutes (association time) and dissociation phase was performed for 3 minutes. Nonspecific background was substracted from each sensogram using SPR_V4017 data collection and alignment program (Reichert, Depew, N.Y.). […] Optimum kinetic parameters were obtained by global fitting analysis using Scrubber2 (Biologic Software, Australia).

T3 sequence (P62937 whole entry): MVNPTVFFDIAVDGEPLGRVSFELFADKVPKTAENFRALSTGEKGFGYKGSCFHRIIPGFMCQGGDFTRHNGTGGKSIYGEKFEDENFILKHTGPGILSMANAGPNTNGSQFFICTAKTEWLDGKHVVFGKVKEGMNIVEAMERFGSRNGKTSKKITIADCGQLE
T2 sequence (P23284 34-216, species assumed): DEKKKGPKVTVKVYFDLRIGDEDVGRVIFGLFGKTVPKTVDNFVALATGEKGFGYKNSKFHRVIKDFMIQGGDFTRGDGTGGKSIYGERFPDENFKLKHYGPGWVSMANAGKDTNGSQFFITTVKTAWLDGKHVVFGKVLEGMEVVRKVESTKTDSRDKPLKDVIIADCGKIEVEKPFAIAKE
T1 sequence (P62937 whole entry): as the sequence (P62937 whole entry) above
Experimental for Toxicity in BALB/c mice: The experimental animals were divided into three groups (n=5) and one of the groups was used as the untreated control group. […] Fourteen days after the administration, blood samples were collected from the treat groups and the control group, respectively. The weight of experimental mice was measured for the evaluation of systemic toxicity in mice. For the confirmation of hepatotoxicity, the AST and ALT activities were measured according to the manufacturer's protocols applied to a 96-well microplate using the GOT-GPT kit (Asan Pharm, Korea). The analysis results regarding the AST and ALT activities were shown in IU/L units. For the confirmation of nephrotoxicity, the blood urea nitrogen (BUN) was measured using the Blood Urea Nitrogen Enzymatic Assay kit (Bioo Scientific, Austin, Tex., USA), and the creatine level in the serum was measured using the Mouse Creatine Assay kit (Crystal Chem, Inc., Downers Grove, Ill., USA).

**Q.** With `COc1cc(C(C(=O)NC2CCCCC2)N(C(=O)Cc2c[nH]c3ccccc23)c2ccc(C(C)C)cc2)cc(OC)c1OC` (centres unmarked) [WJCPA-126, N-cyclohexyl-2-[(2-1H-indol-3-yl-acetyl)-(4-isopropyl-phenyl)-amino]-2-(3,4,5-trimethoxy-phenyl)-acetamide] as the compound, how does the “serum ALT and AST” value (Toxicity in BALB/c mice; 50 mg/kg for 2 weeks, FIG. 17b, 17c) read?
**A.** No difference was observed

**Q.** And the “safety parameters (body weight, serum ALT, AST, BUN, creatinine)” value (Toxicity in BALB/c mice; 50 mg/kg intraperitoneally daily, 14 days, FIG. 17)?
**A.** did not induce any noticeable change on safety parameters

**Q.** And the “binding between GST-CypA and NS5A or NS5B” value [1]?
**A.** significant decrease of the binding between GST-CypA and NS5A or NS5B

**Q.** What about the Kd (CypB) of the same compound?
**A.** 2100 nM

**Q.** And the body weight (HCV-Con1b replicon; FIG. 19a)?
**A.** did not show any noticeable change in body weight

**Q.** And the “HCV RNA level in liver” value (HCV-Con1b replicon; FIG. 19b)?
**A.** relatively higher level of inhibition on the HCV RNA level than the CsA treatment

**Q.** What about the “HCV NS5A in transplanted mouse liver tissue (immunofluorescence)” value (HCV-Con1b replicon; FIG. 20) of the same compound?
**A.** only faintly detected

**Q.** And the “cytotoxicity in mouse splenocytes” value (murine splenocytes)?
**A.** no cytotoxicity

**Q.** And the “Koff (dissociation rate)” value (CypA; SPR)?
**A.** 6.0×10^−4 S^−1

**Q.** And the Kon (CypA; SPR)?
**A.** 8.2×10^3 M^−1 S^−1

**Q.** And the Kd (CypA; SPR-based kinetic analysis, CypA)?
**A.** 520 nM

— US10064843B2, “Bis-amide derivative and use thereof” (University-Industry Cooperation Group of Kyung Hee …, priority 2013, dated 2018)
